Key:
Assay type in all cases: in vivo
Spodoptera littoralis = experiment: Example B9: Spodoptera littoralis (Egyptian cotton leaf worm), cotton leaf discs, L1 larvae; settings: foliar, 72 h, application rate of 200 ppm, 3 days after infestation, read-out: control in at least one of the three categories (mortality, anti-feedant effect, or growth inhibition)
How it was run: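 Five L1 larvae placed on sprayed, dried cotton leaf discs; spray solutions aqueous, from 10,000 ppm DMSO stocks. Control given when mortality, anti-feedant effect or growth inhibition exceeds untreated samples at 3 days.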

Myzus persicae = experiment: Example B7: Myzus persicae (green peach aphid), intrinsic activity, sucrose solution 24-well; settings: 120 h, application rate of 12.5 ppm, 5 days after infestation, read-out: control (mortality)
Text: Example B7: Myzus persicae (Green Peach Aphid). Intrinsic Activity
Test compounds prepared from 10,000 ppm DMSO stock solutions were applied by pipette into 24-well microtiter plates and mixed with sucrose solution. The plates were closed with a stretched Parafilm. A plastic stencil with 24 holes was placed onto the plate and infested pea seedlings were placed directly on the Parafilm. The infested plate was closed with a gel blotting paper and another plastic stencil and then turned upside down. The samples were assessed for mortality 5 days after infestation.
The following compounds gave an effect of at least 80% control at an application rate of 12.5 ppm: […]

Chilo suppressalis = experiment: Example B1: Chilo suppressalis (striped rice stemborer), artificial diet, L2 larvae; settings: 144 h, application rate of 200 ppm, 6 days after infestation, read-out: control in at least one of the three categories (mortality, anti-feedant effect, or growth inhibition)
How it was run: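 L2 larvae (6-8 per well) were placed on dried artificial diet that had been dosed with aqueous dilutions of 10,000 ppm DMSO stock solutions. After 6 days, control was credited if mortality, antifeedant effect or growth inhibition was higher than in untreated samples.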

Plutella xylostella = experiment: Example B8: Plutella xylostella (diamond back moth), artificial diet 24-well, eggs; settings: 192 h, application rate of 200 ppm, 8 days after infestation, read-out: effect in at least one of the two categories (mortality or growth inhibition)
How it was run: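 Plutella eggs placed onto dried, compound-treated artificial diet, the aqueous test solutions diluted from 10,000 ppm DMSO stocks. Eight days post-infestation, larvae rated for mortality and growth inhibition relative to untreated controls.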

Diabrotica balteata = experiment: Example B2: Diabrotica balteata (corn root worm), maize sprouts, L2 larvae; settings: 96 h, application rate of 200 ppm, 4 days after infestation, read-out: control in at least one of the two categories (mortality or growth inhibition)
Method: Example B2: Diabrotica balteata (Corn Root Worm)
Maize sprouts placed onto an agar layer in 24-well microtiter plates were treated with aqueous test solutions prepared from 10,000 ppm DMSO stock solutions by spraying. After drying, the plates were infested with L2 larvae (6 to 10 per well). The samples were assessed for mortality and growth inhibition in comparison to untreated samples 4 days after infestation.
The following compounds gave an effect of at least 80% control in at least one of the two categories (mortality or growth inhibition) at an application rate of 200 ppm: […]

CC(NC(=O)Nc1ccc(Br)cc1OC(F)F)c1nccnc1-c1ncccn1 (centres unmarked) [Example P241, 1-[4-bromo-2-(difluoromethoxy)phenyl]-3-[1-(3-pyrimidin-2-ylpyrazin-2-yl)ethyl]urea]
≥ 80%: percent control (mortality, anti-feedant effect or growth inhibition) at 200 ppm (Spodoptera littoralis) | mortality at 12.5 ppm (Myzus persicae) | percent control (mortality, anti-feedant effect or growth inhibition) at 200 ppm (Chilo suppressalis) | percent effect (mortality or growth inhibition) at 200 ppm (Plutella xylostella)

CC(NC(=O)Nc1cc(OC(F)(F)C(F)F)c(Cl)cc1Cl)c1nccnc1-c1ncccn1 (centres unmarked) [Example P238, 1-[2,4-dichloro-5-(1,1,2,2-tetrafluoroethoxy)phenyl]-3-[1-(3-pyrimidin-2-ylpyrazin-2-yl)ethyl]urea]
≥ 80%: percent control (mortality or growth inhibition) at 200 ppm (Diabrotica balteata) | percent control (mortality, anti-feedant effect or growth inhibition) at 200 ppm (Spodoptera littoralis) | mortality at 12.5 ppm (Myzus persicae) | percent control (mortality, anti-feedant effect or growth inhibition) at 200 ppm (Chilo suppressalis) | percent effect (mortality or growth inhibition) at 200 ppm (Plutella xylostella)

C[C@H](NC(=O)Nc1cc(C(F)(F)F)c(Cl)cc1Br)c1ncnn1-c1cnccn1 [Example P279, 1-[2-bromo-4-chloro-5-(trifluoromethyl)phenyl]-3-[(1S)-1-(2-pyrazin-2-yl-1,2,4-triazol-3-yl)ethyl]urea]
≥ 80%: percent control (mortality or growth inhibition) at 200 ppm (Diabrotica balteata) | percent control (mortality, anti-feedant effect or growth inhibition) at 200 ppm (Spodoptera littoralis) | percent control (mortality, anti-feedant effect or growth inhibition) at 200 ppm (Chilo suppressalis) | percent effect (mortality or growth inhibition) at 200 ppm (Plutella xylostella)

C[C@H](NC(=O)Nc1cc2c(cc1Br)OC(F)(F)O2)c1ncnn1-c1ncccn1 [Example P79, 1-(6-bromo-2,2-difluoro-1,3-benzodioxol-5-yl)-3-[(1S)-1-(2-pyrimidin-2-yl-1,2,4-triazol-3-yl)ethyl]urea]
≥ 80%: percent control (mortality, anti-feedant effect or growth inhibition) at 200 ppm (Spodoptera littoralis) | mortality at 12.5 ppm (Myzus persicae) | percent control (mortality, anti-feedant effect or growth inhibition) at 200 ppm (Chilo suppressalis) | percent effect (mortality or growth inhibition) at 200 ppm (Plutella xylostella)

C[C@H](NC(=O)N1CCc2cc(C(F)(F)F)ccc21)c1ncnn1-c1ncccn1 [Example P57, N-[(1S)-1-(2-pyrimidin-2-yl-1,2,4-triazol-3-yl)ethyl]-5-(trifluoromethyl)indoline-1-carboxamide]
≥ 80%: percent control (mortality or growth inhibition) at 200 ppm (Diabrotica balteata) | percent control (mortality, anti-feedant effect or growth inhibition) at 200 ppm (Spodoptera littoralis) | mortality at 12.5 ppm (Myzus persicae) | percent effect (mortality or growth inhibition) at 200 ppm (Plutella xylostella)

CC(NC(=O)Nc1cc(OC(F)(F)C(F)F)c(Cl)cc1Cl)c1nccnc1-n1nccn1 (centres unmarked) [Example P258, 1-[2,4-dichloro-5-(1,1,2,2-tetrafluoroethoxy)phenyl]-3-[1-[3-(triazol-2-yl)pyrazin-2-yl]ethyl]urea]
≥ 80%: percent control (mortality or growth inhibition) at 200 ppm (Diabrotica balteata) | percent control (mortality, anti-feedant effect or growth inhibition) at 200 ppm (Chilo suppressalis) | percent effect (mortality or growth inhibition) at 200 ppm (Plutella xylostella)

C[C@H](NC(=O)Nc1cc(OC(F)(F)C(F)C(F)(F)F)c(Cl)cc1Cl)c1ncnn1-c1ncccn1 (stereo partly drawn) [Example P223, 1-[2,4-dichloro-5-(1,1,2,3,3,3-hexafluoropropoxy)phenyl]-3-[(1S)-1-(2-pyrimidin-2-yl-1,2,4-triazol-3-yl)ethyl]urea]
≥ 80%: percent control (mortality or growth inhibition) at 200 ppm (Diabrotica balteata) | percent control (mortality, anti-feedant effect or growth inhibition) at 200 ppm (Spodoptera littoralis) | percent control (mortality, anti-feedant effect or growth inhibition) at 200 ppm (Chilo suppressalis) | percent effect (mortality or growth inhibition) at 200 ppm (Plutella xylostella)

C[C@H](NC(=O)Nc1cc(C(F)(F)F)ccc1Cl)c1ncnn1-c1ncccn1 [Example P14, 1-[2-chloro-5-(trifluoromethyl)phenyl]-3-[(1S)-1-(2-pyrimidin-2-yl-1,2,4-triazol-3-yl)ethyl]urea]
≥ 80%: percent control (mortality or growth inhibition) at 200 ppm (Diabrotica balteata) | percent control (mortality, anti-feedant effect or growth inhibition) at 200 ppm (Spodoptera littoralis) | percent control (mortality, anti-feedant effect or growth inhibition) at 200 ppm (Chilo suppressalis) | percent effect (mortality or growth inhibition) at 200 ppm (Plutella xylostella)

C[C@H](NC(=O)Nc1cc(F)c(Cl)cc1Cl)c1ncnn1-c1ncccn1 [Example P380, 1-(2,4-dichloro-5-fluoro-phenyl)-3-[(1S)-1-(2-pyrimidin-2-yl-1,2,4-triazol-3-yl)ethyl]urea]
≥ 80%: percent control (mortality, anti-feedant effect or growth inhibition) at 200 ppm (Spodoptera littoralis) | mortality at 12.5 ppm (Myzus persicae) | percent control (mortality, anti-feedant effect or growth inhibition) at 200 ppm (Chilo suppressalis) | percent effect (mortality or growth inhibition) at 200 ppm (Plutella xylostella)

C[C@H](NC(=O)Nc1ccc(C(F)(F)F)cc1C(F)(F)F)c1ncnn1-c1ccc(C#N)cn1 [Example P13, 1-[2,4-bis(trifluoromethyl)phenyl]-3-[(1S)-1-[2-(5-cyano-2-pyridyl)-1,2,4-triazol-3-yl]ethyl]urea]
≥ 80%: percent control (mortality or growth inhibition) at 200 ppm (Diabrotica balteata) | percent control (mortality, anti-feedant effect or growth inhibition) at 200 ppm (Spodoptera littoralis) | percent control (mortality, anti-feedant effect or growth inhibition) at 200 ppm (Chilo suppressalis) | percent effect (mortality or growth inhibition) at 200 ppm (Plutella xylostella)

C[C@H](NC(=O)N(C)c1ccc(Cl)cc1Cl)c1ncnn1-c1ncccn1 [Example P114, 1-(2,4-dichlorophenyl)-1-methyl-3-[(1S)-1-(2-pyrimidin-2-yl-1,2,4-triazol-3-yl)ethyl]urea]
≥ 80%: percent control (mortality or growth inhibition) at 200 ppm (Diabrotica balteata) | percent control (mortality, anti-feedant effect or growth inhibition) at 200 ppm (Spodoptera littoralis) | percent control (mortality, anti-feedant effect or growth inhibition) at 200 ppm (Chilo suppressalis) | percent effect (mortality or growth inhibition) at 200 ppm (Plutella xylostella)

CC(NC(=O)Nc1ccc(Br)cc1OC(F)F)c1nccnc1-n1nccn1 (centres unmarked) [Example P261, 1-[4-bromo-2-(difluoromethoxy)phenyl]-3-[1-[3-(triazol-2-yl)pyrazin-2-yl]ethyl]urea]
≥ 80%: percent control (mortality or growth inhibition) at 200 ppm (Diabrotica balteata) | percent control (mortality, anti-feedant effect or growth inhibition) at 200 ppm (Spodoptera littoralis) | percent control (mortality, anti-feedant effect or growth inhibition) at 200 ppm (Chilo suppressalis) | percent effect (mortality or growth inhibition) at 200 ppm (Plutella xylostella)

C[C@H](NC(=O)Nc1cc(OC(F)(F)F)c(F)cc1Br)c1ncnn1-c1ncccn1 [Example P316, 1-[2-bromo-4-fluoro-5-(trifluoromethoxy)phenyl]-3-[(1S)-1-(2-pyrimidin-2-yl-1,2,4-triazol-3-yl)ethyl]urea]
≥ 80%: percent control (mortality, anti-feedant effect or growth inhibition) at 200 ppm (Spodoptera littoralis) | mortality at 12.5 ppm (Myzus persicae) | percent control (mortality, anti-feedant effect or growth inhibition) at 200 ppm (Chilo suppressalis) | percent effect (mortality or growth inhibition) at 200 ppm (Plutella xylostella)

C[C@H](NC(=O)Nc1cc(C(F)(F)F)c(Cl)cc1Cl)c1ncnn1-c1ncc(C#N)s1 [Example P140, 1-[(1S)-1-[2-(5-cyanothiazol-2-yl)-1,2,4-triazol-3-yl]ethyl]-3-[2,4-dichloro-5-(trifluoromethyl)phenyl]urea]
≥ 80%: percent control (mortality or growth inhibition) at 200 ppm (Diabrotica balteata) | percent control (mortality, anti-feedant effect or growth inhibition) at 200 ppm (Spodoptera littoralis) | percent control (mortality, anti-feedant effect or growth inhibition) at 200 ppm (Chilo suppressalis) | percent effect (mortality or growth inhibition) at 200 ppm (Plutella xylostella)

C[C@H](NC(=O)Nc1ccc(Br)cc1Br)c1ncnn1-c1ncccn1 [Example P130, 1-(2,4-dibromophenyl)-3-[(1S)-1-(2-pyrimidin-2-yl-1,2,4-triazol-3-yl)ethyl]urea]
≥ 80%: percent control (mortality, anti-feedant effect or growth inhibition) at 200 ppm (Spodoptera littoralis) | mortality at 12.5 ppm (Myzus persicae) | percent control (mortality, anti-feedant effect or growth inhibition) at 200 ppm (Chilo suppressalis) | percent effect (mortality or growth inhibition) at 200 ppm (Plutella xylostella)

C[C@H](NC(=O)Nc1cc(Cl)c(Cl)cc1Cl)c1ncnn1-c1ncccn1 [Example P43, 1-[(1S)-1-(2-pyrimidin-2-yl-1,2,4-triazol-3-yl)ethyl]-3-(2,4,5-trichlorophenyl)urea]
≥ 80%: percent control (mortality or growth inhibition) at 200 ppm (Diabrotica balteata) | percent control (mortality, anti-feedant effect or growth inhibition) at 200 ppm (Spodoptera littoralis) | percent control (mortality, anti-feedant effect or growth inhibition) at 200 ppm (Chilo suppressalis) | percent effect (mortality or growth inhibition) at 200 ppm (Plutella xylostella)

C[C@@H](NC(=O)Nc1cc(OC(F)(F)C(F)F)c(Cl)cc1Cl)c1nccnc1-c1ncccn1 [Example P136, 1-[2,4-dichloro-5-(1,1,2,2-tetrafluoroethoxy)phenyl]-3-[(1R)-1-(3-pyrimidin-2-ylpyrazin-2-yl)ethyl]urea]
≥ 80%: percent control (mortality or growth inhibition) at 200 ppm (Diabrotica balteata) | percent control (mortality, anti-feedant effect or growth inhibition) at 200 ppm (Chilo suppressalis) | percent effect (mortality or growth inhibition) at 200 ppm (Plutella xylostella)

C[C@H](NC(=O)Nc1cnc(C(F)(F)F)cc1Cl)c1nccnc1-c1ccc(C#N)cn1 [Example P250, 1-[4-chloro-6-(trifluoromethyl)-3-pyridyl]-3-[(1S)-1-[3-(5-cyano-2-pyridyl)pyrazin-2-yl]ethyl]urea]
≥ 80%: percent control (mortality, anti-feedant effect or growth inhibition) at 200 ppm (Spodoptera littoralis) | mortality at 12.5 ppm (Myzus persicae) | percent control (mortality, anti-feedant effect or growth inhibition) at 200 ppm (Chilo suppressalis) | percent effect (mortality or growth inhibition) at 200 ppm (Plutella xylostella)

Reference: patent US20240108006A1, “PESTICIDALLY ACTIVE HETEROAROMATIC COMPOUNDS” (SYNGENTA CROP PROTECTION AG, priority 2021, published 2024)
